Assay results published in US20180237441A1, “Chemical Compounds” (GlaxoSmithKline Intellectual Property (No.2) Limited, priority 2015, published 2018).

These compounds were tested against T1, PERK (Homo sapiens, UniProt Q9NZJ5) (assay: PERK enzyme assay (HTRF)). Settings: 500 μM ATP; at least one experimental run; read-out: PERK Enzyme (500 μM ATP) IC50.
T1 sequence (Q9NZJ5 30-1116): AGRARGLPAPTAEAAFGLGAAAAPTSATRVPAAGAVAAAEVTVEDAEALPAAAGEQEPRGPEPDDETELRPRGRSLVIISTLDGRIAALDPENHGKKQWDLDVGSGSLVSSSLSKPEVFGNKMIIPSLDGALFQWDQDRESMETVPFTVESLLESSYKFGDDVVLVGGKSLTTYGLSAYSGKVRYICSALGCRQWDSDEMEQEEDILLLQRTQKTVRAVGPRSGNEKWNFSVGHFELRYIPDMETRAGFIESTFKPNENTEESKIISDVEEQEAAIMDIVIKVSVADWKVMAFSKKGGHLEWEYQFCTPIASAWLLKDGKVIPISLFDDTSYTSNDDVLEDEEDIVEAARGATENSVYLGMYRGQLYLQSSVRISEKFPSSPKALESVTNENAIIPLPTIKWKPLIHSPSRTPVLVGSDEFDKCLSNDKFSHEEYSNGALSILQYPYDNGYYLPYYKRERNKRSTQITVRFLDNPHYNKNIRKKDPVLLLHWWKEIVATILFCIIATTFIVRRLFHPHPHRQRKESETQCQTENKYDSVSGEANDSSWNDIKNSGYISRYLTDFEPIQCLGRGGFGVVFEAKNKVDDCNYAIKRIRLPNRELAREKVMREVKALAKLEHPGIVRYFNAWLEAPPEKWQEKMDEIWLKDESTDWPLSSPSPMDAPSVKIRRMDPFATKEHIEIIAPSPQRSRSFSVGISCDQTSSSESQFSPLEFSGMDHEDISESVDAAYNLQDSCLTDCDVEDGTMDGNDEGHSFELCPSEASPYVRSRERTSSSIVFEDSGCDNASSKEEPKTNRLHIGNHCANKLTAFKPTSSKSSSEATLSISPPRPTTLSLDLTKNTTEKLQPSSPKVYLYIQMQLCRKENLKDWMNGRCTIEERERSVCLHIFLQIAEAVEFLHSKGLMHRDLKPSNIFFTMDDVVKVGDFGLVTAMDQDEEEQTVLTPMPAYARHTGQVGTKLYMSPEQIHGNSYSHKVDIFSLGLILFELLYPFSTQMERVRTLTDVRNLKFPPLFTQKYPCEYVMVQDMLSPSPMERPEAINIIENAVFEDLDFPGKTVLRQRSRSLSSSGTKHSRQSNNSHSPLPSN
Type: biochemical
Procedure: Compounds of the invention were assayed for PERK enzyme inhibitory activity with modifications to previously reported conditions (Axten et al. J. Med. Chem., 2012, 55, 7193-7207). Briefly, various concentrations of compounds (maximum 1% DMSO) were dispensed into 384-well plates containing GST-PERK enzyme. After 30-60 minutes of compound pre-incubation, ATP and biotin-eIF2α were added and after 60 minutes the reaction was quenched. After 2 hrs, a fluorescence plate reader was used to measure inhibition and IC50s were calculated.
Enzyme Assay Protocol for PKR-Like Endoplasmic Reticulum Kinase (PERK)—HTRF —% Inhibition
Assay Buffer contains HEPES (pH7.5) 10 mM, CHAPS 2 mM, MgCl2 5 mM and DTT 1 mM in water
Detection Buffer contains HEPES (pH7.5) 10 mM and CHAPS 2 mM in water Assay Plate Preparation:
1. Enzyme Preparation: • 4× Enzyme solution was prepared immediately prior to adding to compound plates. • 3 nM of GST-PERK in Assay buffer. Final [PERK] in 10 μl assay volume=0.75 nM
2. Substrate Preparation: • 4× Substrate solution was prepared immediately prior to adding to compound plates. • 4× Substrate solution in assay buffer 2000 μM ATP and 160 nM Biotin-eIF2α • Final [ATP] in 10 μl assay volume=500 μM • Final [biotin-eIF2a] in 10 μl assay volume=40 nM.
3. Quench/Detection Solution: • 16 nM eIF2 Phospho-Antibody • 16 nM Eu anti-Rabbit IgG • 160 nM Streptavidin-APC • 60 mM EDTA • Final concentration in 10 μL assay volume: 4 nM eIF2 Phospho-Antibody, 4 nM Eu anti-Rabbit IgG 40 nM Streptavidin-APC
The activity of compounds in the PERK enzyme assay was determined at PERK Enzyme (500 μM ATP) IC50 (nM).

IC50 [nM]	Structure (SMILES)
30.1	CCN1C(=O)N(c2ccc(-c3cn(C)c4ncnc(N)c34)c(F)c2)CC1c1cc(F)cc(F)c1 (single isomer, unassigned) [Example 172, 1-(4-(4-amino-7-methyl-7H-pyrrolo[2,3-d]pyrimidin-5-yl)-3-fluorophenyl)-4-(3,5-difluorophenyl)-3-ethylimidazolidin-2-one]
903	CC(C)CN1C(=O)N(c2ccc(-c3cn(C)c4ncnc(N)c34)c(F)c2)CC1c1cc(F)ccc1F (stereo not shown) [Example 14, 1-(4-(4-amino-7-methyl-7H-pyrrolo[2,3-d]pyrimidin-5-yl)-3-fluorophenyl)-4-(2,5-difluorophenyl)-3-isobutylimidazolidin-2-one]
13.8	CN1C(=O)N(c2ccc(-c3cn(C)c4ncnc(N)c34)c(F)c2)CC1c1ccc(F)cc1F (single isomer, unassigned) [Example 46, 1-(4-(4-amino-7-methyl-7H-pyrrolo[2,3-d]pyrimidin-5-yl)-3-fluorophenyl)-4-(2,4-difluorophenyl)-3-methylimidazolidin-2-one]
988	CN1C(=O)N(c2ccc(-c3cn(C4CC4)c4ncnc(N)c34)c(F)c2)CC1c1ccc(F)cc1F (single isomer, unassigned) [Example 154, 1-(4-(4-amino-7-cyclopropyl-7H-pyrrolo[2,3-d]pyrimidin-5-yl)-3-fluorophenyl)-4-(2,4-difluorophenyl)-3-methylimidazolidin-2-one]

Same assay, conditions: PERK Enzyme (500 μM ATP) IC50; at least one experimental run; read-out: PERK Activity

IC50 [nM]	Structure (SMILES)
< 100	CN1C(=O)N(c2ccc(-c3cn(C)c4ncnc(N)c34)c(F)c2)CC1C1CCCCC1 (single isomer, unassigned) [Example 62, 1-(4-(4-amino-7-methyl-7H-pyrrolo[2,3-d]pyrimidin-5-yl)-3-fluorophenyl)-4-cyclohexyl-3-methylimidazolidin-2-one]
100 to 1000	Cn1cc(-c2ccc(N3CC(c4cc(F)ccc4F)CC3=O)cc2F)c2c(N)ncnc21 (stereo not shown) [Example 31, 1-(4-(4-amino-7-methyl-7H-pyrrolo[2,3-d]pyrimidin-5-yl)-3-fluorophenyl)-4-(2,5-difluorophenyl)pyrrolidin-2-one]
100 to 1000	Cc1cccc(C2CC(=O)N(c3ccc(-c4cn(C)c5ncnc(N)c45)c(F)c3)C2)n1 (stereo not shown) [Example 33, 1-(4-(4-amino-7-methyl-7H-pyrrolo[2,3-d]pyrimidin-5-yl)-3-fluorophenyl)-4-(6-methylpyridin-2-yl)pyrrolidin-2-one]
100 to 1000	Cc1nc(N)c2c(-c3ccc(N4CC(c5c(F)ccc(F)c5F)N(C)C4=O)cc3F)cn(C)c2n1 (stereo not shown) [Example 72, 1-(4-(4-amino-2,7-dimethyl-7H-pyrrolo[2,3-d]pyrimidin-5-yl)-3-fluorophenyl)-3-methyl-4-(2,3,6-trifluorophenyl)imidazolidin-2-one]
< 100	CN1C(=O)N(c2ccc(-c3cn(C4CC4)c4ncnc(N)c34)c(F)c2)CC1c1ccc(F)cc1F (stereo not shown) [Example 108, 1-(4-(4-amino-7-cyclopropyl-7H-pyrrolo[2,3-d]pyrimidin-5-yl)-3-fluorophenyl)-4-(2,4-difluorophenyl)-3-methylimidazolidin-2-one]
100 to 1000	CCN1C(=O)N(c2ccc(-c3nn(C)c4ncnc(N)c34)c(F)c2)CC1c1ccc(F)cc1F (stereo not shown) [Example 98, 1-(4-(4-amino-1-methyl-1H-pyrazolo[3,4-d]pyrimidin-3-yl)-3-fluorophenyl)-4-(2,4-difluorophenyl)-3-ethylimidazolidin-2-one]
> 1000	CCN1C(=O)N(c2ccc(-c3cn(C)c4nc(C)nc(N)c34)c(F)c2)CC1c1cc(F)ccc1F (single isomer, unassigned) [Example 45, 1-(4-(4-amino-2,7-dimethyl-7H-pyrrolo[2,3-d]pyrimidin-5-yl)-3-fluorophenyl)-4-(2,5-difluorophenyl)-3-ethylimidazolidin-2-one]
< 100	CCN1C(=O)N(c2ccc(-c3cn(C)c4ncnc(N)c34)c(F)c2)CC1c1cc(F)cc(F)c1 (single isomer, unassigned) [Example 172, 1-(4-(4-amino-7-methyl-7H-pyrrolo[2,3-d]pyrimidin-5-yl)-3-fluorophenyl)-4-(3,5-difluorophenyl)-3-ethylimidazolidin-2-one]
100 to 1000	Cc1nc(N)c2c(-c3ccc(N4CC(c5cc(F)ccc5F)N(C)C4=O)cc3F)cn(C)c2n1 (single isomer, unassigned) [Example 37, 1-(4-(4-amino-2,7-dimethyl-7H-pyrrolo[2,3-d]pyrimidin-5-yl)-3-fluorophenyl)-4-(2,5-difluorophenyl)-3-methylimidazolidin-2-one]
100 to 1000	CC(C)CN1C(=O)N(c2ccc(-c3cn(C)c4ncnc(N)c34)c(F)c2)CC1c1cc(F)ccc1F (stereo not shown) [Example 14, 1-(4-(4-amino-7-methyl-7H-pyrrolo[2,3-d]pyrimidin-5-yl)-3-fluorophenyl)-4-(2,5-difluorophenyl)-3-isobutylimidazolidin-2-one]
< 100	CN1C(=O)N(c2ccc(-c3cn(C)c4ncnc(N)c34)c(F)c2)CC1c1ccc(F)cc1F (single isomer, unassigned) [Example 46, 1-(4-(4-amino-7-methyl-7H-pyrrolo[2,3-d]pyrimidin-5-yl)-3-fluorophenyl)-4-(2,4-difluorophenyl)-3-methylimidazolidin-2-one]
< 100	CN1C(=O)N(c2ccc(-c3cn(C4CC4)c4ncnc(N)c34)c(F)c2)CC1c1ccccc1 (stereo not shown) [Example 149, 1-(4-(4-amino-7-cyclopropyl-7H-pyrrolo[2,3-d]pyrimidin-5-yl)-3-fluorophenyl)-3-methyl-4-phenylimidazolidin-2-one]
100 to 1000	CCN1C(=O)N(c2ccc(-c3cn(C)c4ncnc(N)c34)c(F)c2)CC1c1cc(F)cc(Cl)c1 (stereo not shown) [Example 27, 1-(4-(4-amino-7-methyl-7H-pyrrolo[2,3-d]pyrimidin-5-yl)-3-fluorophenyl)-4-(3-chloro-5-fluorophenyl)-3-ethylimidazolidin-2-one]
< 100	CN1C(=O)N(c2ccc(-c3cn(C)c4ncnc(N)c34)c(F)c2)CC1C1CCCCC1 (stereo not shown) [Example 58, 1-(4-(4-amino-7-methyl-7H-pyrrolo[2,3-d]pyrimidin-5-yl)-3-fluorophenyl)-4-cyclohexyl-3-methylimidazolidin-2-one]
< 100	CN1C(=O)N(c2ccc(-c3cn(C)c4ncnc(N)c34)c(F)c2)CC1c1ccccn1 (stereo not shown) [Example 7, 1-(4-(4-amino-7-methyl-7H-pyrrolo[2,3-d]pyrimidin-5-yl)-3-fluorophenyl)-3-methyl-4-(pyridin-2-yl)imidazolidin-2-one]
< 100	CN1C(=O)N(c2ccc(-c3cn(C4CC4)c4ncnc(N)c34)c(F)c2)CC1c1cc(F)ccc1F (single isomer, unassigned) [Example 145, 1-(4-(4-amino-7-cyclopropyl-7H-pyrrolo[2,3-d]pyrimidin-5-yl)-3-fluorophenyl)-4-(2,5-difluorophenyl)-3-methylimidazolidin-2-one]
100 to 1000	Cc1nc(N)c2c(-c3c(F)cc(N4CC(c5ccc(F)cc5F)N(C)C4=O)cc3F)cn(C)c2n1 (stereo not shown) [Example 105, 1-(4-(4-amino-2,7-dimethyl-7H-pyrrolo[2,3-d]pyrimidin-5-yl)-3,5-difluorophenyl)-4-(2,4-difluorophenyl)-3-methylimidazolidin-2-one]
< 100	CN1C(=O)N(c2ccc(-c3cn(C)c4ncnc(N)c34)c(F)c2)CC1c1cc(F)c(F)cc1F (stereo not shown) [Example 156, 1-(4-(4-amino-7-methyl-7H-pyrrolo[2,3-d]pyrimidin-5-yl)-3-fluorophenyl)-3-methyl-4-(2,4,5-trifluorophenyl)imidazolidin-2-one]
100 to 1000	Cn1cc(-c2ccc(N3CC(c4ccc(F)cc4F)CC3=O)cc2F)c2c(N)ncnc21 (stereo not shown) [Example 34, 1-(4-(4-amino-7-methyl-7H-pyrrolo[2,3-d]pyrimidin-5-yl)-3-fluorophenyl)-4-(2,4-difluorophenyl)pyrrolidin-2-one]
< 100	Cc1cc(N2CC(c3cc(F)cc(F)c3)N(C)C2=O)ccc1-c1cn(C2CC2)c2ncnc(N)c12 (stereo not shown) [Example 119, 1-(4-(4-amino-7-cyclopropyl-7H-pyrrolo[2,3-d]pyrimidin-5-yl)-3-methylphenyl)-4-(3,5-difluorophenyl)-3-methylimidazolidin-2-one]
100 to 1000	CN1C(=O)N(c2ccc(-c3cn(C4CC4)c4ncnc(N)c34)c(F)c2)CC1c1ccc(F)cc1F (single isomer, unassigned) [Example 154, 1-(4-(4-amino-7-cyclopropyl-7H-pyrrolo[2,3-d]pyrimidin-5-yl)-3-fluorophenyl)-4-(2,4-difluorophenyl)-3-methylimidazolidin-2-one]
